# Laboratory results reported in the supplement of paper PMC11061612.
# Experiments:
# Assay in all cases: combination Emax (second highest fraction inhibited in the dose matrix, 72 h); higher = more inhibition; extreme values may be limits of the assay
# [1] = test system: AMO-1 (Plasma Cell Myeloma)
# Outline: (§1)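 Cell lines grown in DMEM/F12 or RPMI with 10% FBS were plated in 1536-well plates and held 24 hours at 37°C, 5% CO2 before 72 hours of exposure to two-drug dose matrices, with DMSO typically at 0.2%. CellTiter-Glo 2.0 luminescence gave viability, which was converted to inhibition. Vehicle wells were set to 0 and blank wells to 1. Combination Emax is the second-highest inhibition in the matrix, and Bliss excess is the observed combination effect minus the expected EA + EB − EA·EB, where EA and EB are the single-agent effects.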
# [2] = test system: C-4-I (Cervical Carcinoma)
# Outline: as §1
# [3] = test system: Ca9-22 (Head and Neck Carcinoma)
# Outline: as §1
# [4] = test system: Caov-4 (Ovarian Carcinoma)
# Outline: as §1
# [5] = test system: D-263MG (Glioblastoma)
# Outline: as §1
# [6] = test system: EFM-19 (Breast Carcinoma)
# Outline: as §1
# [7] = test system: LU-65 (Non-Small Cell Lung Carcinoma)
# Outline: as §1
# [8] = test system: MIA-PaCa-2 (Pancreatic Carcinoma)
# Outline: as §1
# [9] = test system: MLMA (Other Blood Carcinomas)
# Outline: as §1
# [10] = test system: NEC8 (Other Solid Carcinomas)
# Outline: as §1
# [11] = test system: NUGC-3 (Gastric Carcinoma)
# Outline: as §1
# [12] = test system: OSC-20 (Oral Cavity Carcinoma)
# Outline: as §1
# [13] = test system: PANC-04-03 (Pancreatic Carcinoma)
# Outline: as §1
# [14] = test system: PWR-1E (Non-Cancerous)
# Outline: as §1
# [15] = test system: SU8686 (Pancreatic Carcinoma)
# Outline: as §1
# [16] = test system: SW13 (Other Solid Carcinomas)
# Outline: as §1
# [17] = test system: TGW (Neuroblastoma)
# Outline: as §1
# [18] = test system: TK10 (Kidney Carcinoma)
# Outline: as §1
# [19] = test system: VA-ES-BJ (Other Solid Carcinomas)
# Outline: as §1
# [20] = test system: YH-13 (Glioblastoma)
# Outline: as §1
Structure (SMILES),combination Emax [1],combination Emax [2],combination Emax [3],combination Emax [4],combination Emax [5],combination Emax [6],combination Emax [7],combination Emax [8],combination Emax [9],combination Emax [10],combination Emax [11],combination Emax [12],combination Emax [13],combination Emax [14],combination Emax [15],combination Emax [16],combination Emax [17],combination Emax [18],combination Emax [19],combination Emax [20]
"NC1(C(=O)N[C@@H](CCO)c2ccc(Cl)cc2)CCN(c2ncnc3[nH]ccc23)CC1 [Capivasertib] + Cn1cnc2c(F)c(Nc3ccc(Br)cc3Cl)c(C(=O)NOCCO)cc21 [Selumetinib] (first compound max 10 µM, 7x7, partner max 10 µM)",0.801,0.537,0.554,0.613,0.518,0.477,0.729,0.643,0.513,0.152,0.662,0.451,0.576,0.486,0.26,0.65,0.262,0.534,0.347,0.598
"COc1cccc2c1C(=O)c1c(O)c3c(c(O)c1C2=O)C[C@@](O)(C(=O)CO)C[C@@H]3O[C@H]1C[C@H](N)[C@H](O)[C@H](C)O1 [Doxorubicin] + Cc1cc2ncnn2cc1Nc1ncc2c(n1)n(C1CCOCC1)c(=O)n2C [AZD7648] (first compound max 1 µM, 7x7, partner max 10 µM)",0.973,0.971,0.831,0.913,0.789,0.437,0.889,0.949,0.893,0.973,0.907,0.563,0.278,0.89,0.203,0.874,0.497,0.773,0.758,0.754
"CS(=O)(=O)CCNCc1ccc(-c2ccc3ncnc(Nc4ccc(OCc5cccc(F)c5)c(Cl)c4)c3c2)o1 [Lapatinib] + C[C@@H](Oc1cc(-c2cnn(C3CCNCC3)c2)cnc1N)c1c(Cl)ccc(F)c1Cl [Crizotinib] (first compound max 10 µM, 7x7, partner max 10 µM)",0.958,0.943,0.987,0.849,0.595,0.554,0.894,0.96,0.899,0.862,0.96,0.795,0.594,0.928,0.16,0.9,0.776,0.656,0.756,0.809
"CC(=O)c1c(C)c2cnc(Nc3ccc(N4CCNCC4)cn3)nc2n(C2CCCC2)c1=O [Palbociclib] + CC1(C)CCC(CN2CCN(c3ccc(C(=O)NS(=O)(=O)c4ccc(NCC5CCOCC5)c([N+](=O)[O-])c4)c(Oc4cnc5[nH]ccc5c4)c3)CC2)=C(c2ccc(Cl)cc2)C1 [Venetoclax] (first compound max 10 µM, 7x7, partner max 1 µM)",0.273,0.0751,0.2,0.18,0.222,0.0695,0.117,0.31,0.683,0.0159,0.339,0.0423,0.0967,0.149,0.0346,0.24,0.226,0.3,0.257,0.344
"CC(=O)c1c(C)c2cnc(Nc3ccc(N4CCNCC4)cn3)nc2n(C2CCCC2)c1=O [Palbociclib] + Cc1c2c(nn1C)CSCc1cc(n(C)n1)CSc1cc(c3ccccc3c1)OCCCc1c(C(=O)O)n(C)c3c-2c(Cl)ccc13 [AZD5991] (first compound max 10 µM, 7x7, partner max 1 µM)",1,0.896,0.267,0.602,0.612,0.255,0.281,0.447,0.784,0.277,0.572,0.168,0.196,0.271,0.0791,0.838,0.24,0.353,0.283,0.38
"CC(=O)c1c(C)c2cnc(Nc3ccc(N4CCNCC4)cn3)nc2n(C2CCCC2)c1=O [Palbociclib] + Cn1cnc2c(F)c(Nc3ccc(Br)cc3Cl)c(C(=O)NOCCO)cc21 [Selumetinib] (first compound max 10 µM, 7x7, partner max 10 µM)",0.557,0.349,0.458,0.585,0.265,0.162,0.491,0.604,0.769,0.0587,0.533,0.182,0.404,0.142,0.173,0.444,0.342,0.427,0.158,0.387
"COc1cccc(OCCCN)c1-c1cc(Nc2cnc(C#N)cn2)n[nH]1 [Prexasertib] + C=CCn1c(=O)c2cnc(Nc3ccc(N4CCN(C)CC4)cc3)nc2n1-c1cccc(C(C)(C)O)n1 [AZD1775] (first compound max 1 µM, partner max 1 µM)",0.99,0.962,1,0.98,0.888,0.62,0.873,0.987,0.963,0.999,0.873,0.534,0.627,0.975,0.531,0.526,0.999,0.661,0.804,0.858
"COc1cccc(OCCCN)c1-c1cc(Nc2cnc(C#N)cn2)n[nH]1 [Prexasertib] + CCc1c2c(nc3ccc(O)cc13)-c1cc3c(c(=O)n1C2)COC(=O)[C@]3(O)CC [SN-38] (first compound max 1 µM, 7x7, partner max 0.3 µM)",0.968,0.999,0.985,1,0.955,0.841,0.926,0.999,0.948,1,0.976,0.735,0.625,1,0.448,0.996,0.944,0.691,0.914,0.862
"COc1cccc(OCCCN)c1-c1cc(Nc2cnc(C#N)cn2)n[nH]1 [Prexasertib] + CN(C)CCCOc1ccc(-c2ccc3ncc4c(c3c2)n(C2CCOCC2)c(=O)n4C)cn1 [AZD0156] (first compound max 1 µM, 7x7, partner max 1 µM)",0.98,0.915,1,0.964,0.915,0.28,0.761,0.754,0.957,0.986,0.726,0.584,0.564,0.953,0.525,0.322,0.964,0.727,0.766,0.777
"COc1cccc(OCCCN)c1-c1cc(Nc2cnc(C#N)cn2)n[nH]1 [Prexasertib] + C[C@@H]1COCCN1C2=NC(=NC(=C2)C3(CC3)[S@](=N)(=O)C)C4=C5C=CNC5=NC=C4 [AZD6738] (first compound max 1 µM, 7x7, partner max 10 µM)",0.965,0.965,0.991,0.965,0.797,0.26,0.795,0.682,0.954,0.983,0.762,0.575,0.555,0.973,0.531,0.519,0.968,0.686,0.782,0.793
"COc1cccc(OCCCN)c1-c1cc(Nc2cnc(C#N)cn2)n[nH]1 [Prexasertib] + Cc1cc2ncnn2cc1Nc1ncc2c(n1)n(C1CCOCC1)c(=O)n2C [AZD7648] (first compound max 1 µM, 7x7, partner max 10 µM)",0.986,0.956,1,0.959,0.835,0.349,0.822,0.792,0.96,0.995,0.747,0.599,0.599,0.983,0.528,0.492,0.947,0.738,0.763,0.869
"COc1cccc(OCCCN)c1-c1cc(Nc2cnc(C#N)cn2)n[nH]1 [Prexasertib] + O=C(c1cc(Cc2n[nH]c(=O)c3ccccc23)ccc1F)N1CCN(C(=O)C2CC2)CC1 [Olaparib] (first compound max 1 µM, 7x7, partner max 10 µM)",0.982,0.929,0.991,0.976,0.762,0.354,0.788,0.797,0.954,0.968,0.726,0.648,0.49,0.71,0.527,0.39,0.915,0.625,0.837,0.804
"CCc1c2c(nc3ccc(O)cc13)-c1cc3c(c(=O)n1C2)COC(=O)[C@]3(O)CC [SN-38] + CN(C)CCCOc1ccc(-c2ccc3ncc4c(c3c2)n(C2CCOCC2)c(=O)n4C)cn1 [AZD0156] (first compound max 0.3 µM, 7x7, partner max 1 µM)",0.9,0.932,0.914,0.954,0.722,0.482,0.836,0.945,0.877,0.99,0.984,0.716,0.462,0.946,0.497,0.988,0.62,0.409,0.875,0.509
